Laboratory results from patent publication US7138241B2, “Hybridoma, an antibody resistant to an interfering substance, and a kit for immunological analysis” (Japan Envirochemicals, Ltd., priority 2001, dated 2006).

Each compound was assayed on EE2-227 antibody (assay: Cross-reactivity test with the EE2-ELISA kit). Details: from IC50 (50% degree of inhibition) of each estrogen's standard curve relative to EE2.
Type: binding, mouse
Description: 100 μL/well of a quantification sample or the “EE2 standard solution” (both are 10% methanol solutions) and 100 μL/well of the “antigen-enzyme conjugate solution” were mixed on a “mixing microplate”.
The “mixed solution” prepared in (3) was pipetted into the “anti-EE2 monoclonal antibody-immobilized plate” in a volume of 100 μl/well and reacted at room temperature for 60 minutes.
The “coloration reagent” prepared in (7) was added in the volume of 100 μL/well, the mixture was reacted at room temperature for 30 minutes, and the “coloration-stop solution” was added in a volume of 100 μL/well to stop the reaction.
The absorbance was measured at a wavelength of 450 nm with a plate reader, and the concentration of EE2 in the sample was determined from a standard curve.
The EE2 concentration was plotted on the ordinate [sic], and the ratio of the absorbance at each EE2 concentration to the absorbance at the concentration of 0 μg/L EE2 (degree of inhibition, B/BO %) was plotted on the abscissa [sic].
For the estrogens shown in [Table 2], the respective standard curves were prepared in the same manner as in Example 4, and the EE2 concentration (IC50) at which the degree of inhibition was 50% was determined and the cross-reactivity was determined from the following equation, and the results are shown in [Table 2]. Cross-reactivity (%)=[…]

**Q.** For `COc1cc2c(cc1O)CC[C@@H]1[C@@H]2CC[C@]2(C)C(=O)CC[C@@H]12` [2-Methoxy E1], which “Cross-reactivity (%) of EE2-227 antibody” value is on record?
**A.** <0.2%

**Q.** Which “Cross-reactivity (%) of EE2-227 antibody” value does the source give for `C[C@]12CC[C@@H]3c4ccc(OS(=O)(=O)O)cc4CC[C@H]3[C@@H]1CC[C@@H]2O[C@@H]1O[C@H](C(=O)O)[C@@H](O)[C@H](O)[C@H]1O` [E2-3-sulfate-17-glucuronide] here?
**A.** <0.2%

**Q.** Which “Cross-reactivity (%) of EE2-227 antibody” value does the source give for `C[C@]12CC[C@@H]3c4ccc(O)cc4CC[C@H]3[C@@H]1C[C@@H](O)[C@@H]2O` [Estriol (E3), Estriol] here?
**A.** <0.2%

**Q.** `C[C@]12CC[C@@H]3c4ccc(O)cc4CC[C@H]3[C@@H]1C[C@H](O)[C@@H]2O` [16-Epi-E3] was tested. Which “Cross-reactivity (%) of EE2-227 antibody” value did it give?
**A.** <0.2%

**Q.** For `C[C@]12CC[C@@H]3c4ccc(O)cc4CC[C@H]3[C@@H]1CC[C@@H]2O` [17β-Estradiol (E2), 17β-Estradiol], which “Cross-reactivity (%) of EE2-227 antibody” value is on record?
**A.** <0.2%

**Q.** With `C[C@]12CC[C@@H]3c4ccc(O)cc4CC[C@H]3[C@@H]1CC[C@@H]2O[C@@H]1O[C@H](C(=O)O)[C@@H](O)[C@H](O)[C@H]1O` [E2-17-glucuronide] as the compound, how does the “Cross-reactivity (%) of EE2-227 antibody” value read?
**A.** <0.2%

**Q.** How did the “Cross-reactivity (%) of EE2-227 antibody” value turn out when `C[C@]12CC[C@@H]3c4ccc(O[C@@H]5O[C@H](C(=O)O)[C@@H](O)[C@H](O)[C@H]5O)cc4CC[C@H]3[C@@H]1CC[C@@H]2O` [E2-3-glucuronide] was run?
**A.** <0.2%

**Q.** How did the “Cross-reactivity (%) of EE2-227 antibody” value turn out when `C#C[C@]1(O)CC[C@H]2[C@@H]3CCc4cc(O)ccc4[C@H]3CC[C@@]21C` [Ethynylestradiol (EE2), Ethynylestradiol] was run?
**A.** 100.0%

**Q.** For `C[C@]12CC[C@@H]3c4ccc(O)cc4CC[C@H]3[C@@H]1C[C@@H](O[C@@H]1O[C@H](C(=O)O)[C@@H](O)[C@H](O)[C@H]1O)[C@@H]2O` [E3-16-glucuronide], which “Cross-reactivity (%) of EE2-227 antibody” value is on record?
**A.** <0.2%
